Experimental findings from patent US20260001928A1 (CORTERIA PHARMACEUTICALS, priority 2022, published 2026) are described below.

The term EC50 denotes the midpoint of the concentration-response curve.

One experiment relates to human LAD2 cells. Type of experiment: cell-based. In outline:
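Mast cell degranulation: cells exposed to peptides for 30 min at final concentrations from 50, 100 or 300 down to 0.1 or 0.001 μM, with 0.5% DMSO where used, in biological duplicates. β-hexosaminidase release was read with a fluorogenic 4-methylumbelliferyl substrate as supernatant/(supernatant + Triton-lysed pellet) × 100. EC50 came from a 4-parameter sigmoidal fit.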

Experiment [1] concerns the target Rat CRF2 a (corticotropin-releasing factor receptor 2), on the A7R5 rat aortic smooth muscle cell line (rat, UniProt P47866 20-411). In words: cell-based or functional assay.

*1 amine or outer side, *2 acyl side, *3 side chain or, on linkers, in order; H or OH if unused. Where a SMILES comes first, the peptide text is derived from it. Side-chain parts run from the residue outwards. [ ]: non-standard residue; d: D form. The star is where a group is joined. C20 diacid = O=C(O)CCCCCCCCCCCCCCCCCCC(=O)*; C18 diacid = O=C(O)CCCCCCCCCCCCCCCCC(=O)*; C16 diacid = O=C(O)CCCCCCCCCCCCCCC(=O)*; γGlu = O=C(O)[C@H](CCC(=O)[*:2])N[*:1]; C14 diacid = O=C(O)CCCCCCCCCCCCC(=O)*; NMeI = CC[C@H](C)[C@H](NC)C(=O)O; AEEA = NCCOCCOCC(=O)O; Aib = CC(C)(N)C(=O)O Bounds are passed on as bounds.

Chain of Rat CRF2 a (corticotropin-releasing factor receptor 2), on the A7R5 rat aortic smooth muscle cell line (P47866 20-411): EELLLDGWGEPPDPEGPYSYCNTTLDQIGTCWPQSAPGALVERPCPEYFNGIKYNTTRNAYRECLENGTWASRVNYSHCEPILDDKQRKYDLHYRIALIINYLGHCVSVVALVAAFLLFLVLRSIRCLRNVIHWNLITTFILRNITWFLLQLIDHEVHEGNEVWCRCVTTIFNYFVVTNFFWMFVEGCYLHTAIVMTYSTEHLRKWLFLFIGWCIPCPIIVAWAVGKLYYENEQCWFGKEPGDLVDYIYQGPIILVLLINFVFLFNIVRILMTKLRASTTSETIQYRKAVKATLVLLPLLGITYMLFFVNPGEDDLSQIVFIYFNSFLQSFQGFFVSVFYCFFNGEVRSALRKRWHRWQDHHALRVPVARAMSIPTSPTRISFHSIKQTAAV

As to `CC[C@H](C)[C@H](NC(C)=O)C(=O)N[C@H](C(=O)N[C@@H](CC(C)C)C(=O)N[C@@H](CO)C(=O)N[C@@H](CC(C)C)C(=O)N[C@@H](CC(=O)O)C(=O)N[C@@H](C(=O)N1CCC[C@H]1C(=O)N[C@H](C(=O)N[C@@H](CCCCN)C(=O)N[C@@H](CC(C)C)C(=O)N[C@@H](CCCCNC(=O)CC[C@H](NC(=O)CCCCCCCCCCCCCCCCC(=O)O)C(=O)O)C(=O)N[C@@H](CCCCN)C(=O)N[C@H](C(=O)N[C@@H](CC(C)C)C(=O)N[C@@H](CC(C)C)C(=O)N[C@@H](CCC(=O)O)C(=O)N[C@@H](CCC(N)=O)C(=O)N[C@@H](CCC(=O)O)C(=O)N[C@@H](CCCCN)C(=O)N[C@@H](CCC(N)=O)C(=O)N[C@@H](CCCCN)C(=O)N[C@@H](CCCCN)C(=O)N[C@@H](CCC(N)=O)C(=O)N[C@@H](CCCNC(=N)N)C(=O)N[C@@H](CCC(=O)O)C(=O)N[C@@H](CCC(N)=O)C(=O)N[C@@H](C)C(=O)N[C@@H](CCC(=O)O)C(=O)N[C@H](C(=O)N[C@@H](CC(N)=O)C(=O)NC(C)(C)C(=O)N[C@@H](CCC(N)=O)C(=O)N[C@H](C(=O)N[C@@H](CC(C)C)C(=O)N[C@@H](C)C(=O)N[C@@H](CCC(N)=O)C(=O)N[C@H](C(N)=O)C(C)C)[C@@H](C)CC)[C@@H](C)O)[C@@H](C)CC)[C@@H](C)CC)C(C)C)C(C)C` [Cmpd 125] (Ac-IVLSLD[dV]PIKLK([γGlu-C18 diacid])KILLEQEKQKKQREQAETN[Aib]QILAQV-NH2), the EC50 with human LAD2 cells is more than 100 µM. Regarding `CC[C@H](C)[C@H](NC)C(=O)N[C@H](C(=O)N[C@@H](CC(C)C)C(=O)N[C@@H](CO)C(=O)N[C@@H](CC(C)C)C(=O)N[C@@H](CC(=O)O)C(=O)N[C@@H](C(=O)N1CCC[C@H]1C(=O)N[C@H](C(=O)N[C@@H](CCCCN)C(=O)N[C@@H](CC(C)C)C(=O)N[C@@H](CCCCNC(=O)COCCOCCNC(=O)CC[C@H](NC(=O)CCCCCCCCCCCCCCCCCCC(=O)O)C(=O)O)C(=O)N[C@@H](CCCCN)C(=O)N[C@H](C(=O)N[C@@H](CC(C)C)C(=O)N[C@@H](CC(C)C)C(=O)N[C@@H](CCC(=O)O)C(=O)N[C@@H](CCC(N)=O)C(=O)N[C@@H](CCC(=O)O)C(=O)N[C@@H](CCCCN)C(=O)N[C@@H](CCC(N)=O)C(=O)N[C@@H](CCCCN)C(=O)N[C@@H](CCC(=O)O)C(=O)N[C@@H](CCC(N)=O)C(=O)N[C@@H](CCCNC(=N)N)C(=O)N[C@@H](CCC(=O)O)C(=O)N[C@@H](CCC(N)=O)C(=O)N[C@@H](C)C(=O)N[C@@H](CCC(=O)O)C(=O)N[C@H](C(=O)N[C@@H](CC(N)=O)C(=O)NC(C)(C)C(=O)N[C@@H](CCC(N)=O)C(=O)N[C@H](C(=O)N[C@@H](CC(C)C)C(=O)N[C@@H](C)C(=O)N[C@@H](CCC(N)=O)C(=O)N[C@H](C(N)=O)C(C)C)[C@@H](C)CC)[C@@H](C)O)[C@@H](C)CC)[C@@H](C)CC)C(C)C)C(C)C` [Cmpd 233] (H-[NMeI]VLSLD[dV]PIKLK([AEEA-γGlu-C20 diacid])KILLEQEKQKEQREQAETN[Aib]QILAQV-NH2), in the experiment on human LAD2 cells, the 50% effective concentration (EC50) was more than 300 µM. Still for that read-out and setting: then `CC[C@H](C)[C@H](NC(C)=O)C(=O)N[C@H](C(=O)N[C@@H](CC(C)C)C(=O)N[C@@H](CO)C(=O)N[C@@H](CC(C)C)C(=O)N[C@@H](CC(=O)O)C(=O)N[C@@H](C(=O)N1CCC[C@H]1C(=O)N[C@H](C(=O)N[C@@H](CCCCN)C(=O)N[C@@H](CC(C)C)C(=O)N[C@@H](CCCCNC(=O)CC[C@H](NC(=O)CCCCCCCCCCCCCCC(=O)O)C(=O)O)C(=O)N[C@@H](CCCCN)C(=O)N[C@H](C(=O)N[C@@H](CC(C)C)C(=O)N[C@@H](CC(C)C)C(=O)N[C@@H](CCC(=O)O)C(=O)N[C@@H](CCC(N)=O)C(=O)N[C@@H](CCC(=O)O)C(=O)N[C@@H](CCCCN)C(=O)N[C@@H](CCC(N)=O)C(=O)N[C@@H](CCCCN)C(=O)N[C@@H](CCCCN)C(=O)N[C@@H](CCC(N)=O)C(=O)N[C@@H](C)C(=O)N[C@@H](CCC(=O)O)C(=O)N[C@@H](CCC(N)=O)C(=O)N[C@@H](C)C(=O)N[C@@H](CCC(=O)O)C(=O)N[C@H](C(=O)N[C@@H](CC(N)=O)C(=O)NC(C)(C)C(=O)N[C@@H](CCC(N)=O)C(=O)N[C@H](C(=O)N[C@@H](CC(C)C)C(=O)N[C@@H](C)C(=O)N[C@@H](CCC(N)=O)C(=O)N[C@H](C(N)=O)C(C)C)[C@@H](C)CC)[C@@H](C)O)[C@@H](C)CC)[C@@H](C)CC)C(C)C)C(C)C` [Cmpd 167] (Ac-IVLSLD[dV]PIKLK([γGlu-C16 diacid])KILLEQEKQKKQAEQAETN[Aib]QILAQV-NH2), with more than 50 µM; and `CC[C@H](C)[C@H](NC(C)=O)C(=O)N[C@H](C(=O)N[C@@H](CC(C)C)C(=O)N[C@@H](CO)C(=O)N[C@@H](CC(C)C)C(=O)N[C@@H](CC(=O)O)C(=O)N[C@@H](C(=O)N1CCC[C@H]1C(=O)N[C@H](C(=O)N[C@@H](CCCCN)C(=O)N[C@@H](CC(C)C)C(=O)N[C@@H](CCCCNC(=O)COCCOCCNC(=O)COCCOCCNC(=O)CC[C@H](NC(=O)CCCCCCCCCCCCCCCCCCC(=O)O)C(=O)O)C(=O)N[C@@H](CCCCN)C(=O)N[C@H](C(=O)N[C@@H](CC(C)C)C(=O)N[C@@H](CC(C)C)C(=O)N[C@@H](CCC(=O)O)C(=O)N[C@@H](CCC(N)=O)C(=O)N[C@@H](CCC(=O)O)C(=O)N[C@@H](CCCCN)C(=O)N[C@@H](CCC(N)=O)C(=O)N[C@@H](CCCCN)C(=O)N[C@@H](CCC(=O)O)C(=O)N[C@@H](CCC(N)=O)C(=O)N[C@@H](CCCNC(=N)N)C(=O)N[C@@H](CCC(=O)O)C(=O)N[C@@H](CCC(N)=O)C(=O)N[C@@H](C)C(=O)N[C@@H](CCC(=O)O)C(=O)N[C@H](C(=O)N[C@@H](CC(N)=O)C(=O)NC(C)(C)C(=O)N[C@@H](CCC(N)=O)C(=O)N[C@H](C(=O)N[C@@H](CC(C)C)C(=O)N[C@@H](C)C(=O)N[C@@H](CCC(N)=O)C(=O)N[C@H](C(N)=O)C(C)C)[C@@H](C)CC)[C@@H](C)O)[C@@H](C)CC)[C@@H](C)CC)C(C)C)C(C)C` [Cmpd 236] (Ac-IVLSLD[dV]PIKLK([AEEA-AEEA-γGlu-C20 diacid])KILLEQEKQKEQREQAETN[Aib]QILAQV-NH2), with 74.1 µM. The same measure, in the same setting: next, `CC[C@H](C)[C@H](NC(C)=O)C(=O)N[C@H](C(=O)N[C@@H](CC(C)C)C(=O)N[C@@H](CO)C(=O)N[C@@H](CC(C)C)C(=O)N[C@@H](CC(=O)O)C(=O)N[C@@H](C(=O)N1CCC[C@H]1C(=O)N[C@H](C(=O)N[C@@H](CCCCN)C(=O)N[C@@H](CC(C)C)C(=O)N[C@@H](CCCCNC(=O)COCCOCCNC(=O)CC[C@H](NC(=O)CCCCCCCCCCCCCCCCCCC(=O)O)C(=O)O)C(=O)N[C@@H](CCCCN)C(=O)N[C@H](C(=O)N[C@@H](CC(C)C)C(=O)N[C@@H](CC(C)C)C(=O)N[C@@H](CCC(=O)O)C(=O)N[C@@H](CCC(N)=O)C(=O)N[C@@H](CCC(=O)O)C(=O)N[C@@H](CCCCN)C(=O)N[C@@H](CCC(N)=O)C(=O)N[C@@H](CCCCN)C(=O)N[C@@H](CCC(=O)O)C(=O)N[C@@H](CCC(N)=O)C(=O)N[C@@H](CCCNC(=N)N)C(=O)N[C@@H](CCC(=O)O)C(=O)N[C@@H](CCC(N)=O)C(=O)N[C@@H](C)C(=O)N[C@@H](CCC(=O)O)C(=O)N[C@H](C(=O)N[C@@H](CC(N)=O)C(=O)NC(C)(C)C(=O)N[C@@H](CCC(N)=O)C(=O)N[C@H](C(=O)N[C@@H](CC(C)C)C(=O)N[C@@H](C)C(=O)N[C@@H](CCC(N)=O)C(=O)N[C@H](C(N)=O)C(C)C)[C@@H](C)CC)[C@@H](C)O)[C@@H](C)CC)[C@@H](C)CC)C(C)C)C(C)C` [Cmpd 231] (Ac-IVLSLD[dV]PIKLK([AEEA-γGlu-C20 diacid])KILLEQEKQKEQREQAETN[Aib]QILAQV-NH2): 47.5 µM; `CC[C@H](C)[C@H](NC(C)=O)C(=O)N[C@H](C(=O)N[C@@H](CC(C)C)C(=O)N[C@@H](CO)C(=O)N[C@@H](CC(C)C)C(=O)N[C@@H](CC(=O)O)C(=O)N[C@@H](C(=O)N1CCC[C@H]1C(=O)N[C@H](C(=O)N[C@@H](CCCCN)C(=O)N[C@@H](CC(C)C)C(=O)N[C@@H](CCCCNC(=O)CC[C@H](NC(=O)CCCCCCCCCCCCCCC(=O)O)C(=O)O)C(=O)N[C@@H](CCCCN)C(=O)N[C@H](C(=O)N[C@@H](CC(C)C)C(=O)N[C@@H](CC(C)C)C(=O)N[C@@H](CCC(=O)O)C(=O)N[C@@H](CCC(N)=O)C(=O)N[C@@H](CCC(=O)O)C(=O)N[C@@H](CCCCN)C(=O)N[C@@H](CCC(N)=O)C(=O)N[C@@H](CCCCN)C(=O)N[C@@H](CCCCN)C(=O)N[C@@H](CCC(N)=O)C(=O)N[C@@H](CCCNC(=N)N)C(=O)N[C@@H](CCC(=O)O)C(=O)N[C@@H](CCC(N)=O)C(=O)N[C@@H](C)C(=O)N[C@@H](CCC(=O)O)C(=O)N[C@H](C(=O)N[C@@H](CC(N)=O)C(=O)N[C@@H](CCC(=O)O)C(=O)N[C@@H](CCC(N)=O)C(=O)N[C@H](C(=O)N[C@@H](CC(C)C)C(=O)N[C@@H](C)C(=O)N[C@@H](CCC(N)=O)C(=O)N[C@H](C(N)=O)C(C)C)[C@@H](C)CC)[C@@H](C)O)[C@@H](C)CC)[C@@H](C)CC)C(C)C)C(C)C` [56 (comp)] (Ac-IVLSLD[dV]PIKLK([γGlu-C16 diacid])KILLEQEKQKKQREQAETNEQILAQV-NH2): 38.5 µM.

B1: comparative peptide 11 (SEQ ID NO: 85) (peptide)
peptide: Ac-IVLSLD[dV]PIKLK([γGlu-C14 diacid])KILLEQEKQKKQREQAETNEQILAQV-NH2
Consider B1, for which the “EC50 [nM] 0% HSA (cAMP, A7R5 rat aortic smooth muscle cells)” value in experiment [1] amounted to 1.01 nM.
